Measured values published in US20210228675A1, “HYPERTROPHIC SCAR INHIBITING COMPOSITION” (FUKUOKA UNIVERSITY, priority 2018, published 2021).
Where two headings read alike, the source gives them in different places. Non-standard residues stand in square brackets, D forms with d. Residues, ends and D or L forms follow the SMILES beside them. Hyp = O=C(O)[C@@H]1C[C@@H](O)CN1

Legend:
[1] = Transfer of Pro-Hyp in blood after administration (LC-MS/MS); format: in vivo, C57 BL/6N mice; conditions: for Tmax: female, C57 BL/6N, mouse, blood, mice without wound, read-out: time at which blood concentration of Pro-Hyp reached a peak (converted)
Method: To C57 BL/6N mice (8 to 10 weeks of age, female) (N=4, per group) in which no wound site is formed, a physiological saline solution (500 nmol/200 μL) of the dipeptide consisting of the amino acid sequence of Pro-Hyp (which may be hereinafter referred to as simply “Pro-Hyp”) is administered intraperitoneally by injection (single administration) or a physiological saline solution (2500 nmol/200 μL) of Pro-Hyp was orally administered using a probe (single administration). After administration, blood was collected over time and Pro-Hyp occurred in blood was measured by LC-MS/MS method. The measurement conditions of LC-MS/MS method were as follows.
Collected blood was 2 times diluted in physiological saline and then centrifugation was performed under conditions at 20° C., 500×g, for 15 minutes. To the supernatant recovered after the centrifugation, 3 volumes of 100% ethanol were added. The supernatant to which 100% ethanol had been added was centrifuged at 20° C., 13000 rpm, for 15 minutes to perform deproteinization. Subsequently, the deproteinized sample was 10 times diluted in 50 mM ammonium bicarbonate and analyzed by LC-MS/MS. For the LC conditions, the analysis was conducted using CAPCELL PAK C1 UG120 10 mm×I.D. 2.0 mm (OSAKA SODA CO., LTD.) as a guard column and the column Hypersil Gold PFP 150 mm×I.D. 2.1 mm, 5 μm (manufactured by Thermo Fisher Scientific, Inc.). The analysis conditions were Mobile phase A MeOH, Mobile phase B a 2% formic acid aqueous solution containing 2 mM ammonium acetate, injection volume 5 μL, and gradient of Table 1 below.
The MS/MS was conducted using a tandem mass spectrometer (TSQ Vantage (manufactured by Thermo Fisher Scientific, Inc.)) under conditions of Method of ionization: Positive ESI, Spray voltage: 3000 V, Vaporizer: 300° C., Sheath gas: 30, Aux gas: 15, Capillary temperature: 250° C., MRM conditions: Parent Mass 229.1, Product Mass 70, Collision energy: 29 ev, S-Lens: 68.
Moreover, in the intraperitoneal administration, the Pro-Hyp concentration reached very high since it transferred in blood without gastrointestinal absorption. […] The C57 BL/6N mice in which no wound site was formed were used in this experiment, it is considered that a similar result is also obtained with Model-1 mice and Model-2 mice generated from the same line of mice.

[2] = test system: granulation tissue in wound site of abdominal wall circular incision model (Model-2) mice; experiment: Formation of granulation tissue by administration of various polypeptides in Model-2 mice; format: in vivo, C57 BL/6N mice; conditions: Day 7; i.p. once a day for 7 days, doses of Table 7; control sparse; FIG. 9
Method: In this Example, aiming to examine granulation tissue formed in the peritoneum layer under tension, a novel model (Model-2) of granulation tissue formation that occurs between the peritoneum layers, which are under the minimal effect of the healing response from the skin layer and under direct influence of the tension of muscles, was generated in the following procedures. Female C57 BL/6N mice at 8 to 10 weeks of age were used. Anesthesia was introduced by administering 200 μL per animal (0.065 mg/g weight) of the anesthetic Somnopentyl (manufactured by Shering-Plough Corporation) to the peritoneal cavity. After the introduction of anesthesia, abdominal skin was cut open 1.5 cm along the midline using scissors for operations. […] Subsequently, the center part of the abdominal wall was picked up with round tip tweezers with an outside diameter of 3 mm, and the tissue in the central part of the abdominal wall was completely removed surgically in a circle with curved tip micro-operation scissors (Bottom panel in FIG. 1). After the incision, the positions 0.25 cm apart from the upper end and 0.25 cm apart from the bottom end of the incised skin (wound site) were sewed up to remove the tension of the skin. Subsequently, the skin was wrapped with Tegaderm and an underwear-shaped silicon protector was further put on to prevent the self-harm of the wound site. […]

[3] = oral, single administration 2500 nmol/200 μL

Row | Molecule | Tmax ([1]; ip, intraperitoneal, single administration 500 nmol/200 μL) | Tmax [1, 3] | time at which blood concentration decreased to a baseline level ([1]; intraperitoneal, single administration 500 nmol/200 μL) | time at which blood concentration decreased to a baseline level [1, 3] | collagen fibers in granulation tissue, Masson trichrome stain [2]
1 | O=C(O)[C@@H]1C[C@@H](O)CN1C(=O)[C@@H]1CCCN1 [Pro-Hyp] (H-Pro-[Hyp]-OH; N-terminus and C-terminus assumed) | 15 min | 15 min | 3 h | 3 h | 
2 | Hyp-Gly |  |  |  |  | the collagen fibers were dense and matured as the tissue
